Patent US20110104173A1, “INHIBITION OF DEGRADATION OF EXTRACELLULAR MATRIX” (The Australian National University, priority 2006, published 2011)

Assays:
[1] = test system: BALB/c (H-2d) islet allografts in CBA/H (H-2k) mice; assay: BALB/c islet allograft survival in CBA/H mice; type: in vivo, mouse; conditions: 7 days post-transplant, PI-88 treated recipient vs control
Description: HS plays a critical role in maintaining the integrity and survival of islets and islet beta cells. […] It is therefore possible that heparanase also plays an important role in the immunological destruction of islet allografts (even in the absence of autoimmune attack). […] Heparanase inhibitors therefore represent an anti-rejection strategy for islet transplants in allogeneic hosts and have the capacity to protect grafted islets from both alloimmune and autoimmune attack.

[2] = test system: prediabetic adult female NOD/Lt mice; assay: PI-88 treatment of prediabetic NOD/Lt mice, onset of autoimmune diabetes; type: in vivo, mouse; conditions: PI-88 10 mg/kg/day i.p. from 10.5 weeks of age, vs saline controls
Description: FIG. 3: PI-88 treatment prevents development of autoimmune diabetes in NOD/Lt mice. […] The incidence of diabetes in the holding female NOD/Lt mouse colony of the inventors is 60%.
Studies conducted by the inventors have shown that heparanase transcripts are increased 7-fold in prediabetic and diabetes-onset NOD mice, compared to neonatal NOD mice; only background levels were detected in normal CBA/H mice (see TABLE 1).

[3] = test system: NODscid islet isografts in diabetic NOD/Lt female mice; assay: NODscid islet isografts in diabetic NOD/Lt mice, recurrence of autoimmune disease; type: in vivo, mouse
Description: FIG. 8: (a) PI-88 therapy prevents disease recurrence in islet isografts. Isografts of 450-500 female NODscid islets transplanted beneath the kidney capsule of diabetic NOD/Lt female mice return non-fasting blood glucose levels to the normal range (shaded region defines the normal range). Without further treatment in a control recipient (circles), hyperglycemia returned from day 3. In contrast, an NODscid islet isograft maintains normoglycemia for up to 14 days in a diabetic NOD mouse treated with PI-88 (10 mg/kg/day i.p.) from day 3 (squares).
Consequently in vivo treatment of transplanted mice with PI-88 should prevent islet allograft rejection, disease recurrence in islet isografts (see FIG. 8) and facilitate the survival and function of islet allografts in diabetic NOD/Lt mice. To assess whether PI-88 therapy is graft-protective, NODscid islets were transplanted to autoimmune diabetic NOD mice 400-500 islets/graft. The mice were treated with PI-88 (10 mg/kg/day) i.p. from day 3 post-transplant (after graft revascularisation). Control transplanted mice were treated with saline. Graft function was monitored by measurement of non-fasting blood glucose levels (using a glucometer (MediSense 2)) 2-3×/week.

[4] = test system: lipopolysaccharride (LPS)-induced inflammation; conditions: in vivo treatment, rodents; cited from earlier work
BALB/c islet beta cells = assay: Islet beta cell survival in vitro after heparitinase treatment; type: cell-based, mouse; conditions: 5-50 μg/ml heparin in culture, P<0.0001
Description: FIG. 9: Isolated islets dispersed into single cells are predominantly insulin-producing beta cells, as confirmed by immunofluorescence. In contrast to control islet cells that remained intact over a 2 day culture period, beta cells treated for 1 hr with bacterial heparitinases (heparinases) (I+II+III; 0.25 U/ml) died (a). Placement of treated cells on an ECM (produced in vitro by a cell line) was able to largely rescue the beta cells from heparitinase-induced cell death (a).
In vitro studies were undertaken to further validate this concept. Isolated BALB/c islets dispersed into single cells using Dispase (1 mg/ml) consist predominantly of insulin-producing beta cells, as confirmed by immunofluorescence. […] Placement of treated cells on an ECM (produced in vitro by a cell line) was able to largely rescue the beta cells from heparitinase-induced cell death (P<0.0001) (FIG. 9(a)). These findings indicate that islet beta cells need cell-associated HS to survive. […] Islet beta cells therefore require cell-associated HS to remain viable and healthy.

skin allograft = conditions: heparins exhibiting some anti-heparanase activity, mice; cited from earlier work

| Substance | islet allograft histology [1] | onset of clinical diabetes [2] | time normoglycemia (non-fasting blood glucose) maintained by islet isograft ([3]; PI-88 10 mg/kg/day i.p. from day 3 post-transplant, control hyperglycemic from day 3) | isograft histology at harvest (hematoxylin and eosin) ([3]; PI-88-treated mouse, control isograft showed aggressive autoimmune destruction) | LPS-induced inflammation [4] | leukocyte behaviour by intra-vital microscopy [4] | rescue of heparitinase-treated beta cells from cell death (BALB/c islet beta cells) | skin allograft survival (skin allograft) |
| --- | --- | --- | --- | --- | --- | --- | --- | --- |
| PI-88 | better preservation of the engrafted allogeneic islets | prevents the onset of clinical diabetes in mice up to 24 weeks of age | up to 14 days | revascularised islets | prevented | leukocyte rolling and adherence to the vascular BM but no extravasation |  |  |
| heparin |  |  |  |  |  |  | efficiently rescued | prolonged skin allograft survival |
